Source: patent publication US9718828B2 (MERCK SHARP & DOHME CORP., priority 2011, dated 2017)
Counter-ions that a name gives are not always drawn.

biological target: Btk enzyme (His-Btk) (Homo sapiens (Human), UniProt Q06187); assay: Btk enzyme activity, IMAP fluorescence polarization assay (Assay Method A); details: not given
Sequence (Q06187 whole entry): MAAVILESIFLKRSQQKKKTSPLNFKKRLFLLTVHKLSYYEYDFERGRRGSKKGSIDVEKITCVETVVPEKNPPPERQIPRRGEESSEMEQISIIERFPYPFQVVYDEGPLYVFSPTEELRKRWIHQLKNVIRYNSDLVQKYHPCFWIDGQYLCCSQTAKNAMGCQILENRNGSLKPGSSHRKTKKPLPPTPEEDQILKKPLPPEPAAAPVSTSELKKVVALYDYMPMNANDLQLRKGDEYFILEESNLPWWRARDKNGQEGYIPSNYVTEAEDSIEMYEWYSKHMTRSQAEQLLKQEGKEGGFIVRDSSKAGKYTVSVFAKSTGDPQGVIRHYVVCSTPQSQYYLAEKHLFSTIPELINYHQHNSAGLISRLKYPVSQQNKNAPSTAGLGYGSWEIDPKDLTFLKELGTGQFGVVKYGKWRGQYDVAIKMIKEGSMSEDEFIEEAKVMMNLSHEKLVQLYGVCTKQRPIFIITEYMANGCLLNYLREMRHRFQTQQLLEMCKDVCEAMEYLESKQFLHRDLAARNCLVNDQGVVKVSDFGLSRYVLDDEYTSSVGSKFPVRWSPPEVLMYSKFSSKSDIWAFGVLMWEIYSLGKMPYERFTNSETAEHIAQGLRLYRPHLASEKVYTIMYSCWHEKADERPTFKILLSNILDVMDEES

Row | Structure (SMILES) | EC50
1 | CCC(=O)N1C2CCC1C(c1nc(-c3ccc(C(=O)Nc4ccccn4)cc3)c3c(N)nccn13)C2 (stereo not shown) [Example 147, 4-(8-amino-3-(7-propionyl-7-azabicyclo[2.2.1]heptan-2-yl)imidazo[1,5-a]pyrazin-1-yl)-N-(pyridin-2-yl)benzamide] | 100 to 1000 nM
2 | COCCC(=O)N1CCC[C@@H](c2nc(-c3ccc(C(=O)Nc4cc(C#N)ccn4)cc3)c3c(N)nccn23)C1 [Example 97, (R)-4-(8-amino-3-(1-(3-methoxypropanoyl)piperidin-3-yl)imidazo[1,5-a]pyrazin-1-yl)-N-(4-cyanopyridin-2-yl)benzamide] | < 10 nM
3 | Nc1nccn2c([C@@H]3CCCN(C(=O)C(F)(F)F)C3)nc(-c3ccc(C(=O)Nc4cc(C(F)(F)F)ccn4)cc3)c12 [Example 72, (R)-4-(8-amino-3-(1-(2,2,2-trifluoroacetyl)piperidin-3-yl)imidazo[1,5-a]pyrazin-1-yl)-N-(4-(trifluoromethyl)pyridin-2-yl)benzamide] | < 10 nM
4 | Nc1nccn2c([C@@H]3CCCN(C(=O)C4(O)CC4)C3)nc(-c3ccc(C(=O)Nc4ccccn4)cc3)c12 [Example 94, (R)-4-(8-amino-3-(1-(1-hydroxycyclopropanecarbonyl)piperidin-3-yl)imidazo[1,5-a]pyrazin-1-yl)-N-(pyridin-2-yl)benzamide] | 10 to 100 nM
5 | CC(C)C(=O)N1CCC2(CC1)CC2c1nc(-c2ccc(C(=O)Nc3ccccn3)cc2)c2c(N)nccn12 (stereo not shown) [Example 150, 4-(8-amino-3-(6-isobutyryl-6-azaspiro[2.5]octan-1-yl)imidazo[1,5-a]pyrazin-1-yl)-N-(pyridin-2-yl) benzamidee] | 100 to 1000 nM
6 | CC(C)(C)C(=O)N1CCC[C@@H](c2nc(-c3ccc(C(=O)Nc4cc(C(F)(F)F)ccn4)cc3)c3c(N)nccn23)C1 [Example 76, (R)-4-(8-amino-3-(1-pivaloylpiperidin-3-yl)imidazo[1,5-a]pyrazin-1-yl)-N-(4-(trifluoromethyl)pyridin-2-yl)benzamide] | < 10 nM
7 | Nc1nccn2c([C@@H]3CCCN(C(=O)C4CCOC4)C3)nc(-c3ccc(C(=O)Nc4ccccn4)cc3)c12 (stereo partly drawn) [Example 56, 4-(8-amino-3-((3R)-1-(tetrahydrofuran-3-carbonyl)piperidin-3-yl)imidazo[1,5-a]pyrazin-1-yl)-N-(pyridin-2-yl)benzamide, TFA salt] | 10 to 100 nM
8 | Nc1nccn2c1c(-c1ccc(C(=O)Nc3ccccn3)c(F)c1)nc2[C@H]1CC[C@H](O)CC1 [Example 12, 4-(8-amino-3-((trans)-4-hydroxycyclohexyl)imidazo[1,5-a]pyrazin-1-yl)-2-fluoro-N-(pyridin-2-yl)benzamide] | 100 to 1000 nM
9 | Nc1nccn2c([C@@H]3CCCN(CC4CCOC4)C3)nc(-c3ccc(C(=O)Nc4cc(C5CC5)ccn4)cc3)c12 (stereo partly drawn) [Example 145, 4-(8-amino-3-((3R)-1-((tetrahydrofuran-3-yl)methyl)piperidin-3-yl)imidazo[1,5-a]pyrazin-1-yl)-N-(4-cyclopropylpyridin-2-yl)benzamide, TFA salt] | 10 to 100 nM

Now from value to molecule:

Row | EC50 | Structure (SMILES)
10 | < 10 nM | Nc1ncnc2c1c(-c1ccc(C(=O)Nc3cc(C(F)(F)F)ccn3)cc1)nn2[C@@H]1CCCN(C(=O)[C@H]2CCCO2)C1 [Example 262, 4-(4-amino-1-((R)-1-((R)-tetrahydrofuran-2-carbonyl)piperidin-3-yl)-1H-pyrazolo[3,4-d]pyrimidin-3-yl)-N-(4-(trifluoromethyl)pyridin-2-yl)benzamide]
11 | 10 to 100 nM | CC1(C(=O)N2CCC[C@@H](c3nc(-c4ccc(C(=O)Nc5cc(C(F)(F)F)ccn5)cc4)c4c(N)ncc(C5=CCOCC5)n34)C2)COC1 [Example 322, (R)-4-(8-amino-5-(3,6-dihydro-2H-pyran-4-yl)-3-(1-(3-methyloxetane-3-carbonyl)piperidin-3-yl)imidazo[1,5-a]pyrazin-1-yl)-N-(4-(trifluoromethyl)pyridin-2-yl)benzamide]
12 | < 10 nM | CCOC(=O)N1C[C@H](c2nc(-c3ccc(C(=O)Nc4cc(C(F)(F)F)ccn4)cc3)c3c(N)nccn23)CC[C@H]1C (relative stereo) [Example 182, (trans)-ethyl 5-(8-amino-1-(4-(4-(trifluoromethyl)pyridin-2-ylcarbamoyl)phenyl)imidazo [1,5-a]pyrazin-3-yl)-2-methylpiperidine-1-carboxylate, TFA salt]
13 | < 10 nM | Nc1nccn2c(C3CCc4[nH]nc(C5CC5)c4C3)nc(-c3ccc(C(=O)Nc4cc(C(F)(F)F)ccn4)cc3)c12 (stereo not shown) [Example 248, 4-(8-amino-3-(3-cyclopropyl-4,5,6,7-tetrahydro-1H-indazol-5-yl)imidazo[1,5-a]pyrazin-1-yl)-N-(4-(trifluoromethyl)pyridin-2-yl)benzamide]

same assay, conditions: read-out: EC50 Btk activity values - Assay Method A; IMAP-FP, 60 min pre-incubation, 5 μM ATP; class 100-1000 is given as ≧100 nM-<1 μM

Row | Structure (SMILES) | EC50
14 | CCCc1ccnc(NC(=O)c2ccc(-c3nc([C@H]4CC[C@H](O)CC4)n4ccnc(N)c34)c(C)c2)c1 [Example 10, 4-(8-amino-3-((trans)-4-hydroxycyclohexyl)imidazo[1,5-a]pyrazin)-3-methyl-N-(4-propylpyridin-2-yl)benzamide] | < 10 nM
15 | CC1CCc2nc(NC(=O)c3ccc(-c4nc([C@H]5CC[C@H](O)CC5)n5ccnc(N)c45)cc3)sc2C1 (stereo partly drawn) [Example 14, 4-(8-amino-3-((trans)-4-hydroxycyclohexyl)imidazo[1,5-a]pyrazin-1-yl)-N-(6-methyl-4,5,6,7-tetrahydrobenzo[d]thiazol-2-yl)benzamide] | < 10 nM
16 | CC(C)C(=O)N1CCC[C@@H](c2nc(-c3ccc(C(=O)Nc4cc(C#N)ccn4)cc3)c3c(N)nccn23)C1 [Example 100, (R)-4-(8-amino-3-(1-isobutyrylpiperidin-3 yl)imidazo[1,5-a]pyrazin-1-yl)-N-(4-cyanopyridin-2-yl)benzamide] | < 10 nM
17 | Nc1nccn2c([C@@H]3CCCNC3)nc(-c3ccc(C(=O)Nc4cc(C(F)(F)F)ccn4)cc3)c12 [Example 106, (R)-4-(8-amino-3-(piperidin-3-yl)imidazo[1,5-a]pyrazin-1-yl)-N-(4-(trifluoromethyl)pyridin-2-yl)benzamide] | < 10 nM
18 | Nc1nccn2c([C@@H]3CCCN(C(=O)C4CC(F)(F)C4)C3)nc(-c3ccc(C(=O)Nc4cc(C5CC5)ccn4)cc3)c12 [Example 109, (R)-4-(8-amino-3-(1-(3,3-difluorocyclobutanecarbonyl)piperidin-3-yl)imidazo[1,5-a]pyrazin-1-yl)-N-(4-cyclopropylpyridin-2-yl)benzamide] | < 10 nM
19 | Nc1nccn2c(C3CCOCC3)nc(-c3ccc(C(=O)Nc4cc(C(F)(F)F)ccn4)cc3)c12 [Example 25, 4-(8-amino-3-(tetrahydro-2H-pyran-4-yl)imidazo[1,5-a]pyrazin-1-yl)-N-(4-(trifluoromethyl)pyridin-2-yl)benzamide] | < 10 nM
20 | CCNC(=O)N[C@H]1CCC[C@@H](c2nc(-c3ccc(C(=O)Nc4cc(C(F)(F)F)ccn4)cc3)c3c(N)nccn23)C1 (relative stereo) [Example 155, 4-(8-amino-3-((cis)-3-(3-ethylureido)cyclohexyl)imidazo [1,5-a]pyrazin-1-yl)-N-(4-(trifluoromethyl)pyridin-2-yl)benzamide] | < 10 nM

More lines, now with the values ahead:

Row | EC50 | Structure (SMILES)
21 | < 10 nM | Nc1nccn2c([C@@H]3CCC[C@@H](NC(=O)C4CCCO4)C3)nc(-c3ccc(C(=O)Nc4cc(C(F)(F)F)ccn4)cc3)c12 (relative stereo) [Example 169, N-((trans)-3-(8-amino-1-(4-(4-(trifluoromethyl)pyridin-2-ylcarbamoyl)phenyl)imidazo [1,5-a]pyrazin-3-yl)cyclohexyl)tetrahydrofuran-2-carboxamide]
22 | < 10 nM | COC[C@H](C)NC(=O)C1CCCN(c2nc(-c3ccc(C(=O)Nc4cc(C5CC5)ccn4)cc3)c3c(N)nccn23)C1 (stereo partly drawn) [Example 241, 1-(8-amino-1-(4-(4-cyclopropylpyridin-2-ylcarbamoyl)phenyl)imidazo[1,5-a]pyrazin-3-yl)-N-((S)-1-methoxypropan-2-yl)piperidine-3-carboxamide, TFA salt]
23 | < 10 nM | C[C@H]1CC[C@@H](c2nc(-c3ccc(C(=O)Nc4cc(C(F)(F)F)ccn4)cc3)c3c(N)nccn23)CN1C(=O)C1CCC1(F)F (relative stereo) [Example 190, 4-(8-amino-3-((cis)-1-(2,2-difluorocyclobutanecarbonyl)-6-methylpiperidin-3-yl)imidazo[1,5-a]pyrazin-1-yl)-N-(4-(trifluoromethyl)pyridin-2-yl)benzamide, TFA salt]
24 | < 10 nM | CC(C)NC(=O)C1CCCN(c2nc(-c3ccc(C(=O)Nc4cc(C(F)(F)F)ccn4)cc3)c3c(N)nccn23)C1 (stereo not shown) [Example 224, 1-(8-amino-1-(4-(4-(trifluoromethyl)pyridin-2-ylcarbamoyl)phenyl)imidazo[1,5-a]pyrazin-3-yl)-N-isopropylpiperidine-3-carboxamide]
25 | < 10 nM | CCCc1ccnc(NC(=O)c2ccc(-c3nc(C4CCOCC4)n4c(Cl)cnc(N)c34)cc2)c1 [Example 298, 4-(8-amino-5-chloro-3-(tetrahydro-2H-pyran-4-yl)imidazo[1,5-a]pyrazin-1-yl)-N-(4-propylpyridin-2-yl)benzamide]
26 | < 10 nM | CC1(C(=O)N2CCC[C@@H](n3nc(-c4ccc(C(=O)Nc5cc(C(F)(F)F)ccn5)cc4)c4c(N)ncnc43)C2)COC1 [Example 267, (R)-4-(4-amino-1-(1-(3-methyloxetane-3-carbonyl)piperidin-3-yl)-1H-pyrazolo[3,4-d]pyrimidin-3-yl)-N-(4-(trifluoromethyl)pyridin-2-yl)benzamide]
27 | < 10 nM | Nc1nccn2c(N3CCOCC3)nc(-c3ccc(C(=O)Nc4cc(C(F)(F)F)ccn4)cc3)c12 [Example 211, 4-(8-amino-3-morpholinoimidazo[1,5-a]pyrazin-1-yl)-N-(4-(trifluoromethyl)pyridin-2-yl)benzamide]
28 | < 10 nM | CCNC(=O)N1C[C@H](c2nc(-c3ccc(C(=O)Nc4cc(C(F)(F)F)ccn4)cc3)c3c(N)nccn23)CC[C@@H]1C (relative stereo) [Example 201, (cis)-5-(8-amino-1-(4-(4-(trifluoromethyl)pyridin-2-ylcarbamoyl)phenyl)imidazo [1,5-a]pyrazin-3-yl)-N-ethyl-2-methylpiperidine-1-carboxamide, TFA salt]
